Assay results: patent US20130323171A1, “RADIOLABELED BBN ANALOGS FOR PET IMAGING OF GASTRIN-RELEASING PEPTIDE RECEPTORS” (priority 2012, published 2013)
Square brackets hold non-standard residues; d marks the D form. Peptide text beside a SMILES is read from it. Sta = CC(C)C[C@H](N)[C@@H](O)CC(=O)O; 4Abz = Nc1ccc(C(=O)O)cc1

Assays:
[1] = Mouse serum stability of the PET probes; assay type: in vitro ADME; conditions: 37° C., 1 h
Method: The in vitro stability of the PET probes was evaluated by incubation with mouse serum (1 mL) at 37° C. for 1 h. The solutions were filtered using a NanoSep 10 K centrifuge (Pall Corp.) to isolate low-molecular-weight radiocomplexes. The samples were analyzed by the radio-HPLC, and the percentages of intact PET probe were determined by quantifying the peaks corresponding with the intact probe and degradation products.
More than 95% of the probes remained intact after 1 h of incubation in mouse serum at 37° C.

GRPR = biological target: T1, GRPR (Homo sapiens, UniProt P30550); test: Cell-binding assay: inhibition of ^125I-[Tyr4]BBN binding on PC3 cells; conditions: 0.06 nM radioligand, 37° C., 1 h, n=4, mean±SD
T1 construct: endogenous in cells; host or cells: PC3 cells
T1 sequence (P30550 whole entry): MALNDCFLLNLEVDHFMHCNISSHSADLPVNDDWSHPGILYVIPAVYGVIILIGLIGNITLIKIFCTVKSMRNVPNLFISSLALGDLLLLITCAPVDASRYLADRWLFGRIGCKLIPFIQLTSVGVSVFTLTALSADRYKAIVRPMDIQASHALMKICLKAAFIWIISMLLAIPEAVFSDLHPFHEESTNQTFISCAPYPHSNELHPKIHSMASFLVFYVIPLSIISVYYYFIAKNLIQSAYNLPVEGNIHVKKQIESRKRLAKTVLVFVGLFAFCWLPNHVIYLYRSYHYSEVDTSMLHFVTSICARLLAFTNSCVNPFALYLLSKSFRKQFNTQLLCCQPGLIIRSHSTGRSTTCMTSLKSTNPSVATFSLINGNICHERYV
Method: The cell-binding assay was performed similarly as previously reported (18, 35). Briefly, the PC3 cells (3×10^4) were incubated with 0.06 nM ^125I-[Tyr4]BBN and varying concentrations of peptides in the binding buffer (RPMI 1640+2 mg/mL BSA+5.2 mg/mL HEPES) at 37° C. for 1 h. The cell-bound, residual radioactivity after washing was determined by gamma counting. […] The experiments were performed in quadruplicate.
All of these peptides inhibited the GRPR-binding of ^125I-[Tyr4]BBN on the PC3 cells in a concentration-dependent manner.

Structure (SMILES) | stability in mouse serum [1] | IC50 (GRPR) [nM]
CSCC[C@H](NC(=O)[C@H](CC(C)C)NC(=O)[C@H](Cc1c[nH]cn1)NC(=O)CNC(=O)[C@@H](NC(=O)[C@H](C)NC(=O)[C@H](Cc1c[nH]c2ccccc12)NC(=O)[C@H](CCC(N)=O)NC(=O)c1ccc(NC(=O)CNC(=O)CCC(C(=O)O)N2CCN(CC(=O)O)CCN(CC(=O)O)CC2)cc1)C(C)C)C(N)=O (single isomer, unassigned) [^64Cu-NODAGA-AMBA, metal not drawn] | exhibited degradation | 
CSCC[C@H](NC(=O)[C@H](CC(C)C)NC(=O)[C@H](Cc1c[nH]cn1)NC(=O)CNC(=O)[C@@H](NC(=O)[C@H](C)NC(=O)[C@H](Cc1c[nH]c2ccccc12)NC(=O)[C@H](CCC(N)=O)NC(=O)c1ccc(NC(=O)CN)cc1)C(C)C)C(N)=O [AMBA] |  | 0.17 ± 0.07
CC(C)C[C@H](NC(=O)C[C@H](O)[C@H](CC(C)C)NC(=O)[C@H](Cc1c[nH]cn1)NC(=O)CNC(=O)[C@@H](NC(=O)[C@H](C)NC(=O)[C@H](Cc1c[nH]c2ccccc12)NC(=O)[C@H](CCC(N)=O)NC(=O)[C@@H](Cc1ccccc1)NC(=O)c1ccc(NC(=O)CN)cc1)C(C)C)C(N)=O [RM1, G-4-aminobenzoyl-D-Phe-Gln-Trp-Ala-Val-Gly-His-Sta-Leu-NH2] (H-G[4Abz][dF]QWAVGH[Sta]L-NH2; N-terminus assumed) |  | 0.25 ± 0.04
